Marks after values point to notes of the source that are not given here.
Tested on: severe traumatic brain injury (sTBI)
Assay: sTBI in rats, HPLC of purine-pyrimidine / energy metabolites in brain (Example 3)
Assay type: in vivo, Male Wistar rats
Experimental: The experimental protocol used in this study was approved by the Ethical Committee of the Catholic University of Rome, according to international standards and guidelines for animal care. Male Wistar rats of 300-350 g body weight (b.w.) were fed with standard laboratory diet and water ad libitum in a controlled environment.
1) n=6 animals subjected to sTBI, with drug administration after 30 minutes and sacrifice at 2 days post-TBI (Acute phase 1)
2) n=6 animals subjected to severe-TBI, with drug administration after 30 minutes and sacrifice at 7 days post-TBI (Acute phase 2).
3) n=6 animals subjected to severe-TBI, with drug administration after 3 days and sacrifice at 7 days post-TBI (Chronic phase).
As the anesthetic mixture, animals received 35 mg/kg b.w. ketamine and 0.25 mg/kg b.w. midazolam by i.p. injection. sTBI was induced by dropping a 450 g weight from 2 m height on to the rat head that had been protected by a metal disk previously fixed on the skull, according to the “weight drop” impact acceleration model (Marmarou et al., A new model of diffuse brain injury in rats. Part I: Pathophysiology and biomechanics. J Neurosurg. 1994; 80: 291-300). […] At the end of each period of treatment, rats were anesthetized again and then immediately sacrificed.
The drug treatment was a subcutaneous injection of 0.5 ml of LMW-DS (15 mg/kg) and administered according to the aforementioned schematic protocol.
An in vivo craniectomy was performed in all animals during anesthesia, after carefully removing the rat's skull, the brain was exposed and removed with a surgical spatula and quickly dropped in liquid nitrogen. After the wet weight (w.w.) determination, tissue preparation was affected as previously disclosed (Tavazzi et al., Cerebral oxidative stress and depression of energy metabolism correlate with severity of diffuse brain injury in rats. Neurosurgery. 2005; 56: 582-589; Vagnozzi et al., Temporal window of metabolic brain vulnerability to concussions: mitochondrial-related impairment-part I. Neurosurgery. 2007; 61: 379-388; Tavazzi et al., Temporal window of metabolic brain vulnerability to concussions: oxidative and nitrosative stresses-part II. Neurosurgery. 2007; 61: 390-395; Amorini et al., Severity of experimental traumatic brain injury modulates changes in concentrations of cerebral free amino acids. J Cell Mol Med. 2017; 21: 530-542.). Briefly, whole brain homogenization was performed with 7 ml of ice-cold, nitrogen-saturated, precipitating solution composed by CH3CN+10 mM KH2PO4, pH 7.40, (3:1; v:v), and using an Ultra-Turrax set at 24,000 rpm/min (Janke & Kunkel, Staufen, Germany). After centrifugation at 20,690×g, for 10 min at 4° C., the clear supernatants were saved, pellets were supplemented with 3 ml of the precipitating solution and homogenized again as described above. A second centrifugation was performed (20,690×g, for 10 min at 4° C.), pellets were saved, supernatants combined with those previously obtained, extracted by vigorous agitation with a double volume of HPLC-grade CHCl3 and centrifuged as above. The upper aqueous phases containing water-soluble low-molecular weight compounds were collected, subjected to chloroform washings for two more times (this procedure allowed the removal of all the organic solvent and of any lipid soluble compound from the buffered tissue extracts), adjusted in volumes with 10 mM KH2PO4, pH 7.40, to have ultimately aqueous 10% tissue homogenates and saved at −80° C. until assayed. […]

[1] = Acute phase 1: 15 mg/kg s.c. 30 min post-sTBI, sacrifice 2 days
[2] = Acute phase 2: 15 mg/kg s.c. 30 min post-sTBI, sacrifice 7 days

What does the source list for “low molecular weight dextran sulfate [LMW-DS]”?
brain MDA levels (15 mg/kg s.c.): significant reduction; brain NAA and its substrates (15 mg/kg s.c.): significant improvements; brain ascorbic acid and GSH levels (15 mg/kg s.c.): significant improvement; brain nitrate concentrations (15 mg/kg s.c., acute and chronic phases of sTBI): significantly decreased; ADO, cerebral concentration [1]: 71.67 ± 15.87 nmol/g (w.w.); ADP, cerebral concentration [1]: 279.34 ± 29.59^b nmol/g (w.w.); ADP-ribose, cerebral concentration [1]: 137.87 ± 43.18^a nmol/g (w.w.); AMP, cerebral concentration [1]: 53.61 ± 17.91^a,c,j nmol/g (w.w.); ATP, cerebral concentration [1]: 1464.25 ± 99.09^a,h nmol/g (w.w.); CDP choline, cerebral concentration [1]: 10.93 ± 3.22^b,h nmol/g (w.w.); CDP, cerebral concentration [1]: 25.53 ± 6.83^a,c nmol/g (w.w.); CMP, cerebral concentration [1]: 30.12 ± 9.97^a,h nmol/g (w.w.); CTP, cerebral concentration [1]: 18.98 ± 6.58^a,g nmol/g (w.w.); CoA-SH, cerebral concentration [1]: 21.61 ± 3.42^a,h nmol/g (w.w.); GDP glucose, cerebral concentration [1]: 38.71 ± 6.86 nmol/g (w.w.); GDP, cerebral concentration [1]: 158.72 ± 24.57^a nmol/g (w.w.); GMP, cerebral concentration [1]: 177.00 ± 32.39^a,g nmol/g (w.w.); GSH, cerebral concentration [1]: 2649.50 ± 397.31^a,d nmol/g (w.w.); GSSG, cerebral concentration [1]: 185.21 ± 48.10 nmol/g (w.w.); GTP, cerebral concentration [1]: 255.29 ± 45.21^a,g nmol/g (w.w.); IMP, cerebral concentration [1]: 67.71 ± 10.63^g,i nmol/g (w.w.); MDA, cerebral concentration [1]: 12.47 ± 2.09^a,c,g nmol/g (w.w.); NADH, cerebral concentration [1]: 15.49 ± 2.05^c,j nmol/g (w.w.); NADPH, cerebral concentration [1]: 6.22 ± 1.73 nmol/g (w.w.); NADP^+, cerebral concentration [1]: 17.95 ± 3.28^a nmol/g (w.w.); NAD^+, cerebral concentration [1]: 404.63 ± 51.10^a,c,i nmol/g (w.w.); NM, cerebral concentration [1]: 6147.91 ± 989.12^a nmol/g (w.w.); NO2, cerebral concentration [1]: 216.03 ± 41.74^a nmol/g (w.w.); NO3, cerebral concentration [1]: 210.64 ± 91.95^d nmol/g (w.w.); UDP, cerebral concentration [1]: 61.83 ± 10.23^a,g nmol/g (w.w.); UDP-Gal, cerebral concentration [1]: 119.45 ± 12.50 nmol/g (w.w.); UDP-GalNac, cerebral concentration [1]: 19.17 ± 4.01^a nmol/g (w.w.); UDP-Glc, cerebral concentration [1]: 32.14 ± 4.59^g nmol/g (w.w.); UDP-GlcNac, cerebral concentration [1]: 95.85 ± 19.73^h,i nmol/g (w.w.); UMP, cerebral concentration [1]: 107.80 ± 21.62 nmol/g (w.w.); UTP, cerebral concentration [1]: 123.46 ± 15.42^d nmol/g (w.w.); acetyl-CoA, cerebral concentration [1]: 21.56 ± 6.22^a,g,i nmol/g (w.w.); adenine, cerebral concentration [1]: 44.82 ± 6.31^a,d,g nmol/g (w.w.); ascorbic acid, cerebral concentration [1]: 3733.10 ± 277.88^a,d nmol/g (w.w.); creatinine, cerebral concentration [1]: 24.55 ± 3.20^b,g,i nmol/g (w.w.); cytidine, cerebral concentration [1]: 15.40 ± 3.04 nmol/g (w.w.); cytosine, cerebral concentration [1]: 17.69 ± 2.50^b,d nmol/g (w.w.); guanine, cerebral concentration [1]: 4.80 ± 1.24^b nmol/g (w.w.); guanosine, cerebral concentration [1]: 20.71 ± 5.66 nmol/g (w.w.); hypoxanthine, cerebral concentration [1]: 14.47 ± 2.87^a nmol/g (w.w.); inosine, cerebral concentration [1]: 92.55 ± 31.20^c nmol/g (w.w.); malonyl-CoA, cerebral concentration [1]: 12.33 ± 1.82^b nmol/g (w.w.); orotic acid, cerebral concentration [1]: 8.80 ± 2.45^b,h,j nmol/g (w.w.); thymidine, cerebral concentration [1]: 0.69 ± 0.11 nmol/g (w.w.); uracil, cerebral concentration [1]: 14.56 ± 5.44 nmol/g (w.w.); uric acid, cerebral concentration [1]: 23.62 ± 3.77^a,d,h nmol/g (w.w.); uridine, cerebral concentration [1]: 76.35 ± 12.85^a,c nmol/g (w.w.); xanthine, cerebral concentration [1]: 9.46 ± 2.34^d nmol/g (w.w.); β-pseudouridine, cerebral concentration [1]: 6.65 ± 1.30^g,i nmol/g (w.w.); ADO, cerebral concentration [2]: 82.11 ± 16.51^a nmol/g (w.w.); ADP, cerebral concentration [2]: 264.07 ± 28.29^b,e,j nmol/g (w.w.); ADP-ribose, cerebral concentration [2]: 141.96 ± 23.56^a,e,j nmol/g (w.w.); AMP, cerebral concentration [2]: 57.70 ± 23.01^a,e,j nmol/g (w.w.); ATP, cerebral concentration [2]: 1632.23 ± 90.07^a,e,j nmol/g (w.w.); CDP choline, cerebral concentration [2]: 6.91 ± 1.86 nmol/g (w.w.); CDP, cerebral concentration [2]: 24.29 ± 6.76^a nmol/g (w.w.); CMP, cerebral concentration [2]: 15.68 ± 2.12^f,j nmol/g (w.w.); CTP, cerebral concentration [2]: 32.63 ± 3.99^e,i nmol/g (w.w.); CoA-SH, cerebral concentration [2]: 30.57 ± 6.02^f nmol/g (w.w.); GDP glucose, cerebral concentration [2]: 49.25 ± 10.33^a nmol/g (w.w.); GDP, cerebral concentration [2]: 126.70 ± 31.35^a,j nmol/g (w.w.); GMP, cerebral concentration [2]: 91.47 ± 12.35^e,i nmol/g (w.w.); GSH, cerebral concentration [2]: 2821.50 ± 242.82^a,e nmol/g (w.w.); GSSG, cerebral concentration [2]: 219.54 ± 53.36 nmol/g (w.w.); GTP, cerebral concentration [2]: 336.65 ± 35.18^a,e,j nmol/g (w.w.); IMP, cerebral concentration [2]: 102.63 ± 22.09^a nmol/g (w.w.); MDA, cerebral concentration [2]: 4.82 ± 1.73^a,e,i nmol/g (w.w.); NADH, cerebral concentration [2]: 13.12 ± 4.19^e nmol/g (w.w.); NADPH, cerebral concentration [2]: 7.05 ± 2.21 nmol/g (w.w.); NADP^+, cerebral concentration [2]: 21.27 ± 4.19^b,e,j nmol/g (w.w.); NAD^+, cerebral concentration [2]: 401.18 ± 34.53^a,e,i nmol/g (w.w.); NM, cerebral concentration [2]: 7262.84 ± 749.73^a,e nmol/g (w.w.)
